Experimental data published in ChEMBL document CHEMBL1201862, “PubChem BioAssay data set” (2004).
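In this assay, cells in 96-well plates receive the compound at five concentrations for 48 hours. Endpoints are linearly interpolated between the surrounding concentrations. GI50 is the concentration that inhibits growth by half.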 Active and inactive are the calls of the source. Cut-off read from the data, not from the text of the source: active = GI50 up to about 1.1 µM and inactive = higher.

Key:
Assay in all cases: growth of human tumour cells (NCI), 48 h
A498 = system: A498
CAKI-1 = system: CAKI-1
EKVX = system: EKVX
HL-60 = system: HL-60
LOX IMVI = system: LOX IMVI
MOLT-4 = system: MOLT-4
Malme-3M = system: Malme-3M
NCI-H226 = system: NCI-H226
NCI-H23 = system: NCI-H23
NCI-H522 = system: NCI-H522
OVCAR-5 = system: OVCAR-5
SF-268 = system: SF-268
SF-295 = system: SF-295
SN12C = system: SN12C
U-251 = system: U-251
HCC 2998 = system: HCC 2998
HCT-116 = system: HCT-116
HCT-15 = system: HCT-15

SMILES | GI50 (A498) | GI50 (CAKI-1) | GI50 (EKVX) | GI50 (HL-60) | GI50 (LOX IMVI) | GI50 (MOLT-4) | GI50 (Malme-3M) | GI50 (NCI-H226) | GI50 (NCI-H23) | GI50 (NCI-H522) | GI50 (OVCAR-5) | GI50 (SF-268) | GI50 (SF-295) | GI50 (SN12C) | GI50 (U-251) | GI50 (HCC 2998) | GI50 (HCT-116) | GI50 (HCT-15) [µM]
Cc1cc(C)c(C(=O)O)c(SSc2cc(C)cc(C)c2C(=O)O)c1 | > 100 µM (inactive) | > 100 µM (inactive) | > 100 µM (inactive) | > 100 µM (inactive) | > 100 µM (inactive) | > 100 µM (inactive) | > 100 µM (inactive) | > 100 µM (inactive) | > 100 µM (inactive) | > 100 µM (inactive) | > 100 µM (inactive) | > 100 µM (inactive) | > 100 µM (inactive) | > 100 µM (inactive) | > 100 µM (inactive) |  |  | 
O=C(CC1S/C(=N\c2ccccc2Cl)NC1=O)Nc1ccc(Cl)cc1 (configuration not stated) | > 100 µM (inactive) | > 100 µM (inactive) | > 100 µM (inactive) | 94.4 µM (inactive) | 99.3 µM (inactive) |  | > 100 µM (inactive) |  | > 100 µM (inactive) |  | > 100 µM (inactive) | > 100 µM (inactive) | > 100 µM (inactive) | > 100 µM (inactive) | > 100 µM (inactive) | > 100 µM (inactive) | > 100 µM (inactive) | 16.3
CSc1nc(SC)c2c(C#N)n[nH]c2n1 | > 100 µM (inactive) | > 100 µM (inactive) | > 100 µM (inactive) |  | > 100 µM (inactive) | > 100 µM (inactive) | > 100 µM (inactive) | > 100 µM (inactive) | > 100 µM (inactive) | > 100 µM (inactive) |  | > 100 µM (inactive) | > 100 µM (inactive) | > 100 µM (inactive) | > 100 µM (inactive) | > 100 µM (inactive) |  | > 100
CN(C)CCS/C(=N\c1ccccc1)n1cccc1 |  | > 100 µM (inactive) |  | 32.7 µM (inactive) | 43.5 µM (inactive) | 49.9 µM (inactive) | 89.5 µM (inactive) | 22.3 µM (inactive) | 72.8 µM (inactive) | 33.9 µM (inactive) | > 100 µM (inactive) | 32.4 µM (inactive) | > 100 µM (inactive) | 54.1 µM (inactive) | > 100 µM (inactive) |  | > 100 µM (inactive) | 98.4
CC1(OCc2ccccc2)C(=O)N2C1NCC2(C)C (configuration not stated) | > 100 µM (inactive) |  | > 100 µM (inactive) | > 100 µM (inactive) | > 100 µM (inactive) | > 100 µM (inactive) | > 100 µM (inactive) | > 100 µM (inactive) | > 100 µM (inactive) |  |  | > 100 µM (inactive) | > 100 µM (inactive) | > 100 µM (inactive) | > 100 µM (inactive) | > 100 µM (inactive) | > 100 µM (inactive) | > 100
Cc1c(-c2cc(-c3ccccc3)n[nH]c2=O)c2ccccc2n1C | > 100 µM (inactive) | > 100 µM (inactive) | > 100 µM (inactive) | > 100 µM (inactive) |  | > 100 µM (inactive) | > 100 µM (inactive) | > 100 µM (inactive) | > 100 µM (inactive) | > 100 µM (inactive) | > 100 µM (inactive) | > 100 µM (inactive) | > 100 µM (inactive) | > 100 µM (inactive) | > 100 µM (inactive) | > 100 µM (inactive) | > 100 µM (inactive) | > 100
CCOC(=O)C1=C(C)Nc2ccccc2S1 | > 100 µM (inactive) | > 100 µM (inactive) | 14.3 µM (inactive) |  | 94.8 µM (inactive) | 46.1 µM (inactive) | > 100 µM (inactive) | > 100 µM (inactive) | > 100 µM (inactive) | > 100 µM (inactive) | > 100 µM (inactive) | > 100 µM (inactive) | > 100 µM (inactive) | > 100 µM (inactive) | > 100 µM (inactive) | > 100 µM (inactive) | > 100 µM (inactive) | > 100
Cn1cnc(CCc2ccccc2)n1 | > 100 µM (inactive) | > 100 µM (inactive) |  | > 100 µM (inactive) | > 100 µM (inactive) | > 100 µM (inactive) | > 100 µM (inactive) | > 100 µM (inactive) | > 100 µM (inactive) | > 100 µM (inactive) | > 100 µM (inactive) | > 100 µM (inactive) | > 100 µM (inactive) | > 100 µM (inactive) | > 100 µM (inactive) |  | > 100 µM (inactive) | > 100
C/C(CN1C(=O)c2ccccc2C1=O)=N\NS(=O)(=O)c1cccc(C(=O)O)c1 | > 100 µM (inactive) | > 100 µM (inactive) | > 100 µM (inactive) | > 100 µM (inactive) |  | > 100 µM (inactive) | > 100 µM (inactive) | > 100 µM (inactive) | > 100 µM (inactive) | > 100 µM (inactive) | > 100 µM (inactive) | > 100 µM (inactive) | > 100 µM (inactive) | > 100 µM (inactive) | > 100 µM (inactive) | > 100 µM (inactive) | > 100 µM (inactive) | > 100
